# Measurements taken from publication PMC7765500, “Siderophore Scaffold as Carrier for Antifungal Peptides in Therapy of Aspergillus fumigatus Infections” (Journal of Fungi, 2020).
# Like-named read-outs stand apart in the source and are kept apart here. Square brackets hold non-standard residues; d marks the D form. Ends that are not written are not given here. Peptide text beside a SMILES is read from it.
# Columns and labels:
# [1] = test system: A. fumigatus (ATCC 46645); format: cell-based, Aspergillus fumigatus
# Procedure: (§1) Susceptibility tests were performed according to CLSI guidelines with slight modifications. In brief, 96-well plates (Greiner Bio-One GmbH) were prepared with 100 μL of 2 × AMM (Aspergillus minimal medium) or 0.2 × Potato Dextrose Broth (PDB) containing 3 × 10^4 spores of A. fumigatus (ATCC 46645) per well. An amount of 100μL antifungal, dissolved in water, was added to get a final concentration of 1 × AMM/0.1 × PDB medium and antifungal concentration ranging from 0.031–16 μg/mL.
# [2] = test system: A. fumigatus (ATCC 46645); format: cell-based, Aspergillus fumigatus; conditions: 0.1 × PDB
# Procedure: as §1
# [3] = test system: A. fumigatus mutant strain ΔsidA/ΔftrA; experiment: Growth promotion assay; format: cell-based, Aspergillus fumigatus; conditions: 72 h, 37 °C
# Source text: To assess the capability of A. fumigatus to utilize the modified siderophores, a mutant strain (ΔsidA/ΔftrA) that lacks the genes sidA and ftrA was used. These mutations impair both siderophore-mediated iron acquisition and reductive iron assimilation, in other words, high-affinity iron acquisition. If the activity of externally supplied siderophore was still intact, similar growth to [Fe]TAFC should be observed, however, in the case of growth reduction, it cannot be distinguished from antifungal activity. Spores (10^4) were point inoculated on solid 0.5 mL of AMM [26] in 24-well plates containing increasing concentrations of iron labelled siderophore ranging from 0.1–50 μM. Plates were incubated for 72 h at 37 °C in a humidity chamber and visually assessed.
# [4] = cited from earlier work
# [5] = iron-depleted AMM, 0.1–50 µM tested
compound,measurement,setting,value
CC(=O)N[C@H](CCCNC(=N)N)C(=O)N[C@H](CCCCN)C(=O)N[C@H](CCCCN)C(=O)N[C@H](Cc1c[nH]c2ccccc12)C(=O)N[C@H](Cc1ccccc1)C(=O)N[C@H](Cc1c[nH]c2ccccc12)C(N)=O [H2N-D-PAF26-Ac] (Ac-[dR][dK][dK][dW][dF][dW]-NH2),MIC 24 h,"[1]; AMM, 37 °C, 24 h",>16 µg/mL
same,MIC 48 h,"[1]; AMM, 37 °C",>16 µg/mL
same,MIC 24 h,"[1]; ATCC 46645, 24 h",>16.1 µM
same,MIC 24 h,"[2]; 37 °C, 24 h",16 µg/mL
same,MIC 48 h,"[2]; 37 °C, 48 h",>16 µg/mL
CC(=O)N[C@@H](CC(N)=O)C(=O)N[C@@H](CC(C)C)C(=O)N[C@H](Cc1ccccc1)C(=O)O [HOOC-NLF-Ac] (Ac-Asn-Leu-[dF]-OH),MIC 24 h,"[1]; AMM, 37 °C, 24 h",>16 µg/mL
same,MIC 48 h,"[1]; AMM, 37 °C",>16 µg/mL
same,MIC 24 h,"[1]; ATCC 46645, 24 h",>36.8 µM
"CC(=O)N[C@H](CCCNC(=N)N)C(=O)N[C@H](CCCCN)C(=O)N[C@H](CCCCN)C(=O)N[C@H](Cc1c[nH]c2ccccc12)C(=O)N[C@H](Cc1ccccc1)C(=O)N[C@H](Cc1c[nH]c2ccccc12)C(N)=O [PAF26, Ac-dArg-dLys-dLys-dTrp-dPhe-dTrp-NH2, reference compound] (Ac-[dR][dK][dK][dW][dF][dW]-NH2)",MIC / growth inhibition,[2]; incubation time not given,8 µg/mL
CC(=O)NC1CCCN(O)C(=O)/C=C(/C)CCOC(=O)C(NC(=O)CCC(=O)N[C@@H](CCCNC(=N)N)C(=O)N[C@@H](CCCCN)C(=O)N[C@@H](CCCCN)C(=O)N[C@@H](Cc2c[nH]c3ccccc23)C(=O)N[C@@H](Cc2ccccc2)C(=O)N[C@@H](Cc2c[nH]c3ccccc23)C(N)=O)CCCN(O)C(=O)/C=C(/C)CCOC(=O)C(NC(C)=O)CCCN(O)C(=O)/C=C(/C)CCOC1=O (stereo partly drawn) [[Fe]DAFC-L-PAF26],Growth promotion (in words),[3]; visually assessed,low hyphal growth without sporulation
same,MIC 24 h,"[1]; AMM, 37 °C, 24 h",>16 µg/mL
same,MIC 48 h,"[1]; AMM, 37 °C",>16 µg/mL
same,MIC 24 h,"[1]; ATCC 46645, 24 h",>8.4 µM
H-Asn-Leu-[dF]-OH [NLF],Antifungal activity (in words),"[1]; AMM, 0.031–16 µg/mL tested",lacked antifungal potential
RKKWFW [HOOC-L-PAF26-NH2],MIC 24 h,"[1]; AMM, 37 °C, 24 h",>16 µg/mL
same,MIC 48 h,"[1]; AMM, 37 °C",>16 µg/mL
same,MIC 24 h,"[1]; ATCC 46645, 24 h",>16.8 µM
"triacetylfusarinine C [[Fe]TAFC, reference compound]",Concentration of growth induction / utilization,[3]; [5],0.1 µM
same,Concentration of sporulation,[3]; [5],10 µM
triacetylfusarinine C [[^68Ga]Ga-TAFC],Biodistribution Blood 30 min,"[4]; BALB/c mice, 30 min, blood",1.60 ± 0.37 %ID/g
same,Biodistribution Femur 30 min,"[4]; BALB/c mice, 30 min, femur",0.51 ± 0.79 %ID/g
same,Biodistribution Heart 30 min,"[4]; BALB/c mice, 30 min, heart",0.67 ± 0.16 %ID/g
same,Biodistribution Intestine 30 min,"[4]; BALB/c mice, 30 min, intestine",1.71 ± 10.04 %ID/g
same,Biodistribution Kidneys 30 min,"[4]; BALB/c mice, 30 min, kidneys",5.51 ± 1.22 %ID/g
same,Biodistribution Liver 30 min,"[4]; BALB/c mice, 30 min, liver",0.70 ± 0.04 %ID/g
same,Biodistribution Lung 30 min,"[4]; BALB/c mice, 30 min, lung",1.54 ± 0.27 %ID/g
same,Biodistribution Muscle 30 min,"[4]; BALB/c mice, 30 min, muscle",0.52 ± 0.25 %ID/g
same,Biodistribution Pancreas 30 min,"[4]; BALB/c mice, 30 min, pancreas",0.42 ± 0.16 %ID/g
same,Biodistribution Spleen 30 min,"[4]; BALB/c mice, 30 min, spleen",0.38 ± 0.11 %ID/g
same,Biodistribution Stomach 30 min,"[4]; BALB/c mice, 30 min, stomach",0.77 ± 0.22 %ID/g
same,Biodistribution Blood 90 min,"[4]; BALB/c mice, 90 min, blood",0.06 ± 0.04 %ID/g
same,Biodistribution Femur 90 min,"[4]; BALB/c mice, 90 min, femur",0.15 ± 0.20 %ID/g
same,Biodistribution Heart 90 min,"[4]; BALB/c mice, 90 min, heart",0.03 ± 0.01 %ID/g
same,Biodistribution Intestine 90 min,"[4]; BALB/c mice, 90 min, intestine",1.03 ± 0.26 %ID/g
same,Biodistribution Kidneys 90 min,"[4]; BALB/c mice, 90 min, kidneys",1.27 ± 0.39 %ID/g
same,Biodistribution Liver 90 min,"[4]; BALB/c mice, 90 min, liver",0.15 ± 0.09 %ID/g
same,Biodistribution Lung 90 min,"[4]; BALB/c mice, 90 min, lung",0.10 ± 0.03 %ID/g
same,Biodistribution Muscle 90 min,"[4]; BALB/c mice, 90 min, muscle",0.03 ± 0.01 %ID/g
same,Biodistribution Pancreas 90 min,"[4]; BALB/c mice, 90 min, pancreas",0.04 ± 0.01 %ID/g
same,Biodistribution Spleen 90 min,"[4]; BALB/c mice, 90 min, spleen",0.05 ± 0.02 %ID/g
same,Biodistribution Stomach 90 min,"[4]; BALB/c mice, 90 min, stomach",0.06 ± 0.02 %ID/g
same,Metabolites on excretion through the urinary tract (in words),[4],no metabolites detected
